According to patent US9394561B2, “Cyclic peptide production” (National Research Council of Canada, priority 2011, dated 2016):
Square brackets hold non-standard residues; d marks the D form. Ends that are not written are not given here.

System: S. vaccaria PCY1
Assay: In vitro assay of recombinant S. vaccaria PCY1 with wild type and mutant presegetalin substrates, products detected by LC/MS
Assay type: biochemical, Saponaria vaccaria
Design: key to CP (cyclic peptide product detected by LC/MS after in vitro assay) / LP (linear peptide product detected by LC/MS after in vitro assay): +=presence; −=absence
Details: for cyclic peptide production by S. vaccaria PCY1 (in words) / linear peptide production by S. vaccaria PCY1 (in words): LC/MS and MS/MS; for CP (cyclic peptide product detected by LC/MS after in vitro assay) / LP (linear peptide product detected by LC/MS after in vitro assay): substrates tested for cyclization by S. vaccaria PCY1
Experimental: The gene corresponding to S. vaccaria PCY1 was cloned and expressed in E. coli with a His-tag. HisPur Cobalt Resin™ (Thermo Scientific) was used for purification of recombinant PCY1. The purified PCY1 was quantified using BCA method (Pierce; http://http://www.piercenet.com/) with BSA as a calibration standard. The in vitro assay contained 20 mM Tris buffer (pH 8.5), 100 mM NaCl, 5 mM DTT, 0.2 mg BSA, and 1.5 μg of substrates (wild type and mutant presegetalins, procured from Bio Basic Inc with >90% purity) and was initiated by the addition of 0.3 μg of PCY1, in a total reaction volume of 100 μl. The assay was incubated at 30° C. for up to 1 h and stopped by placing reactions in dry ice. The assays were lyophilized, re-suspended in methanol, evaporated and re-suspended in 50:50 v/v methanol/water for LC/MS analysis.
Ion trap ESI+ LC/MS/MS analysis was used to detect production of cyclic peptides using an Agilent 6320 Ion Trap LC/MS system under default Smart Parameter settings. The analyzer and ion optics were adjusted to achieve proper resolution (Agilent Installation Guide #G2440-90105) using the ESI Tuning Mix (Agilent #G2431A). The mass spectrometer scanned from 50 to 2200 mass units at 8100 mass units sec^−1 with an expected peak width of 0.35 atomic mass units. For auto MS/MS, the trap isolation width was 4 atomic mass units. The associated Agilent 1200 LC was fitted with a Zorbax 300 EXTEND-C18 column (150×2.1 mm, 3.5 μm particle size) maintained at 35° C. The binary solvent system consisted of 90:10 v/v water/acetonitrile containing 0.1% formic acid and 0.1% ammonium formate (solvent A) and 10:90 v/v water/acetonitrile containing 0.1% formic acid and 0.1% ammonium formate (solvent B). The separation gradient was 90:10 A/B to 50:50 A/B in 3 ml over 20 min.
In order to characterize substrate specificity of PCY1 and understand the segetalin A biosynthetic mechanism, a total of 44 substrates (Table 3) were tested for the PCY1 activity and the results are briefly summarized in Table 3. The last two columns in Table 3 summarize product type detected by LC/MS after in vitro assays (CP is cyclic peptide and LP is linear peptide, +=presence, −=absence, NA=not applicable). The 44 substrates were classified as follows: • (A) Presegetalin A1 [14,32], a wild type (WT) precursor of segetalin A • (B) Truncated mutants of presegetalin A1[14,32] • (C) Alanine scanning mutants corresponding to variants of the mature segetalin A sequence • (D) Alanine scanning mutants of the C-terminal region of presegetalin A1[14,32] • (E) D-amino acid mutants corresponding to variants of the mature segetalin A sequence • (F) Insertion mutants corresponding to variants of the mature segetalin A sequence • (G) Other A-class and F-class presegetalins • (H) Putative cyclic peptide precursors from Dianthus caryophyllus

S. vaccaria PCY1, sequence (as listed by the source): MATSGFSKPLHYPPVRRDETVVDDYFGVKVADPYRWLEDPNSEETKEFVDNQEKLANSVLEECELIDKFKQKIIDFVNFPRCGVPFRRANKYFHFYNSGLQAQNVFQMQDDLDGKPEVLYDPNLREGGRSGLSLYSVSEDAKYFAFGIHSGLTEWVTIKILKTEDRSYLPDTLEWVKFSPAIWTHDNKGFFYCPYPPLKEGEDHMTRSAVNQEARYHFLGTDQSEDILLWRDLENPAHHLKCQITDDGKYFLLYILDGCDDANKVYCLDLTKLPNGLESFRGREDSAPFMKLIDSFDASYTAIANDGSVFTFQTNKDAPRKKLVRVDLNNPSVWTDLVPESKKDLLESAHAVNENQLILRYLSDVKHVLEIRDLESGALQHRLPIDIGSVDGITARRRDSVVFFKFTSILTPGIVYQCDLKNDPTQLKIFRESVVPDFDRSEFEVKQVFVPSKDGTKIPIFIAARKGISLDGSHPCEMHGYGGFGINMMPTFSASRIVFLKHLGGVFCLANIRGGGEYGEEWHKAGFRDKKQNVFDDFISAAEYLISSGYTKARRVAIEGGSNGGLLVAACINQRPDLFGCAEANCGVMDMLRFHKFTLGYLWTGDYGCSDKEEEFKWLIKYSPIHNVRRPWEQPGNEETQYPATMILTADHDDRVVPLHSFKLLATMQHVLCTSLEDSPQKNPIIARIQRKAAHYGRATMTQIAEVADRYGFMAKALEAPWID

| Substance | cyclic peptide production by S. vaccaria PCY1 (in words) | CP (cyclic peptide product detected by LC/MS after in vitro assay) | LP (linear peptide product detected by LC/MS after in vitro assay) | linear peptide production by S. vaccaria PCY1 (in words) | increase in segetalin A production relative to wild type presegetalin A1[14,32] (alanine scanning mutants of C-terminal region) | segetalin A production, times lower than the WT substrate (alanine scanning mutants of C-terminal region, FIG. 9) |
| --- | --- | --- | --- | --- | --- | --- |
| 21 (GVPVWAFQAKDVENVSAPV; Presegetalin A1[14,32] A28V) [compound 21] | sensitive | + | + |  |  |  |
| 40 (GLPGWPFQAKDVENASAPV; Presegetalin L1[14,32]) [compound 40] | cyclic peptide products were detected from all of them | + | − |  |  |  |
| 8 (GAPVWAFQAKDVENASAPV; Presegetalin A1[14,32] variant aa15 = alanine) [compound 8] |  | + | + |  |  |  |
| 16 (GVPVWAFQAADVENASAPV; Presegetalin A1[14,32] K23A) [compound 16] | sensitive | + | + |  |  |  |
| 5 (GVPVWAF; Presegetalin A1[14,20]) [compound 5] |  | − | − |  |  |  |
| 17 (GVPVWAFQAKAVENASAPV; Presegetalin A1[14,32] D24A) [compound 17] | sensitive | + | + |  |  |  |
| 36 (GLSFAFPAKDAENASSPV; Presegetalin D1[14,31]) [compound 36] | cyclic peptide products were detected from all of them | + | + |  |  |  |
| 26 (G[dV]PVWAFQAKDVENASAPV) [compound 26] |  | + | + |  |  |  |
| 18 (GVPVWAFQAKDAENASAPV; Presegetalin A1[14,32] V25A) [compound 18] | relatively higher amounts of segetalin A than that produced from WT substrate | + | + |  |  |  |
| 13 (GVPVWAAQAKDVENASAPV; Presegetalin A1[14,32] F20A) [compound 13] | sensitive | + | + |  |  |  |
| 42 (FGTHGLPAPIQVPNGMDDACAPM; Presegetalin J1[14,36]) [compound 42] | cyclic peptide products were detected from all of them | + | − |  |  |  |
| 33 (GVPAVWAFQAKDVENASAPV; Presegetalin A1[14,32] ins 16A17) [compound 33] | both detected | + | + | both detected |  |  |
| 19 (GVPVWAFQAKDVANASAPV; Presegetalin A1[14,32] E26A) [compound 19] | relatively higher amounts of segetalin A than that produced from WT substrate | + | + |  |  |  |
| 38 (GVKYAFQPKDSENASAPV; Presegetalin G1[14,31]) [compound 38] | cyclic peptide products were detected from all of them | + | − |  |  |  |
| 22 (GVPVWAFQAKDVENAAAPV; Presegetalin A1[14,32] S29A) [compound 22] | relatively higher amounts of segetalin A than that produced from WT substrate | + | + |  | 30% |  |
| 4 (GVPVWAFQAKD; Presegetalin A1[14,24]) [compound 4] |  | − | + | almost equivalent to the linear peptide formed from the WT substrate |  |  |
| 6 (GVPVWA; Presegetalin A1[14,19]) [compound 6] |  | − |  |  |  |  |
| 12 (GVPVWVFQAKDVENASAPV; Presegetalin A1[14,32] variant aa19 = valine) [compound 12] | neither cyclic peptide nor linear peptide was detected | − | − | neither cyclic peptide nor linear peptide was detected |  |  |
| 27 (GV[dP]VWAFQAKDVENASAPV) [compound 27] |  | + | − |  |  |  |
| Presegetalin A1[14,32]F20A (GVPVWAAQAKDVENASAPV; Presegetalin A1[14,32] F20A) [No. 13] |  |  |  | presence of linear peptide was confirmed by MS/MS analysis |  |  |
| 14 (GVPVWAFAAKDVENASAPV; Presegetalin A1[14,32] Q21A) [compound 14] | sensitive | + | + |  |  |  |
| 29 (GVPV[dW]AFQAKDVENASAPV) [compound 29] |  | + | + |  |  |  |
| 34 (GVPAAAVWAFQAKDVENASAPV; Presegetalin A1[14,32] ins 16AAA17) [compound 34] | produced the expected 9 amino acid cyclic peptide | + | + | linear peptide products |  |  |
| 10 (GVPAWAFQAKDVENASAPV; Presegetalin A1[14,32] variant aa17 = alanine) [compound 10] |  | + | + |  |  |  |
| 25 (GVPVWAFQAKDVENASAPA; Presegetalin A1[14,32] V32A) [compound 25] |  | + | + |  |  |  |
| 35 (GVAWAFQAKDVENASAPV; Presegetalin B1[14,31]) [compound 35] | cyclic peptide products were detected from all of them | + | − |  |  |  |
| 24 (GVPVWAFQAKDVENASAAV; Presegetalin A1[14,32] P31A) [compound 24] | sensitive | + | + |  |  | 11 times |
